# Several values for one entry are separate records, joined by “and”; a condition that tells them apart may be missing. Equal values may be shown once. Entries after “also recorded” stand apart in the source; their conditions may differ. Read-outs that look alike come from different tables or passages of the source.
# Assays:
# [1] = tested on: patients with advanced solid tumors harboring FGFR genetic alterations; experiment: Patient disposition and treatment exposure; type: in vivo
# serum phosphate levels = experiment: Pharmacodynamics: serum phosphate levels; type: in vivo, human; conditions: BGJ398 treatment; consistently at doses ≥ 100 mg
# [2] = tested on: RT112 human tumor-derived FGFR gene fusion bladder cancer cell line; conditions: read-out: Half maximal inhibitory concentration; cited from earlier work
# [3] = tested on: solid tumors harboring FGFR alterations; experiment: Antitumor activity, RECIST v1.0 tumor evaluations; type: in vivo, human
# [4] = Pharmacokinetics: BGJ398 plasma concentrations; type: in vivo, human
# [5] = on the basis of preclinical data ref 20; cited from earlier work
# [6] = tested on: patients with advanced solid tumors harboring FGFR genetic alterations
# FGFR4 = conditions: read-out: Half maximal inhibitory concentration; cited from earlier work
# [7] = 36 patients with FGFR1-amplified sqNSCLC, ≥ 100 mg continuously
# [8] = eight patients with FGFR3-mutated bladder/urothelial cancer, ≥ 100 mg
compound,measurement,setting,value
"CCN1CCN(c2ccc(Nc3cc(N(C)C(=O)Nc4c(Cl)c(OC)cc(OC)c4Cl)ncn3)cc2)CC1 [BGJ398, 3-(2,6-dichloro-3,5-dimethoxy-phenyl)-1-{6-[4-(4-ethyl-piperazin-1-yl)-phenylamino]-pyrimidin-4-yl}−1-methyl-urea]",Discontinuation because of death,[1]; N = 132,3.8%
same,Discontinuation because of disease progression,[1]; N = 132,67.4%
same,Discontinuation because of AEs,"[1]; human, in vivo",12.9%
same,Serum phosphate levels,serum phosphate levels,increased serum phosphate levels; also recorded: Elevated serum phosphate levels
same,IC50,[2],4 nM
same,Patients continuing to receive treatment for > 8 weeks,[3]; 31 sqNSCLC patients treated at 125 mg continuously,12
same,Disease control rate (DCR: PR + SD),[3]; [7],50%
same,Patients achieving PRs (overall response rate),[3]; [7],11.1% and 11%
same,Patients with SD,[3]; [7],14 patients
same,Patients with reduced tumor burden,[3]; 85 patients treated at ≥ 100 mg with evaluable data (28 patients),32.9%
same,Time responder remained on study,"[3]; FGFR1-amplified sqNSCLC, unconfirmed PR",26.3 weeks
same,Patients with best overall response of SD,"[3]; all patients, N = 132",42
same,Tumor burden change,[3]; all three patients with FGFR2-altered cholangiocarcinoma with pre- and post-treatment assessments,reduced tumor burden
same,Patients with best response of SD,"[3]; breast cancer, ≥ 100 mg, 10 of 32 patients",31%
same,Partial responses,"[3]; doses ≥ 100 mg, FGFR1-amplified sqNSCLC and FGFR3-mutant bladder/urothelial cancer, six confirmed",seven
same,Disease control rate (DCR),[3]; [8],75%
same,Patients achieving PRs (overall response rate),[3]; [8],37.5% and 38%
same,Patients with reduced tumor burden,[3]; [8],62.5%
same,Patients with disease control,[3]; of 132 patients across all doses,49
same,Increase of mean AUC from 0 to 24 hours on day 1,[4]; from 20 to 150 mg once daily,approximately nine
same,Tmax,"[4]; human, plasma, oral, Median time to reach maximum plasma concentration, after a single dose",2 to 3 h
same,Dose-limiting toxicity observed,"[6]; 100 mg, n = 1",grade 3 aminotransferase elevations; also recorded: grade 3 increases in ALT/AST
same,Dose-limiting toxicity observed,"[6]; 150 mg, n = 1 each",grade 1 corneal toxicity; also recorded: grade 3 aminotransferase elevations; also recorded: grade 3 increases in ALT/AST
same,Reversibility of DLTs,[6]; after BGJ398 interruption and/or concomitant medication,reversible
same,Patients who died while receiving treatment or within 28 days of the last dose,"[6]; all doses, N = 132",Fifteen
same,Patients experiencing DLTs,"[6]; dose-determining set, four of 34 patients, cycle 1",11.8%
same,"AE leading to discontinuation, patients","[6]; human, in vivo",13.6%
same,"AE requiring dose adjustment or interruption, patients","[6]; human, in vivo",59.1%
same,"Asymptomatic hyperphosphatemia suspected to be treatment related, patients","[6]; human, in vivo",72.7%
same,"At least one AE suspected to be treatment related, patients","[6]; human, in vivo",95.5%
same,"Eye-related AE leading to discontinuation, patients","[6]; human, in vivo",4.5%
same,"Grade 3/4 AE suspected to be treatment related, patients","[6]; human, in vivo",31.1%
same,"Grade 3/4 TEAEs, patients","[6]; human, in vivo",52.3%
same,Median time to first dose interruption,"[6]; human, in vivo",22 days
same,"Treatment-emergent AEs (TEAEs), patients","[6]; human, in vivo",99.2%
same,"Treatment-related alopecia, patients","[6]; human, in vivo",23.5%
same,"Treatment-related decreased appetite, patients","[6]; human, in vivo",28.8%
same,"Treatment-related diarrhea, patients","[6]; human, in vivo",27.3%
same,"Treatment-related fatigue, patients","[6]; human, in vivo",25.0%
same,"Treatment-related nausea, patients","[6]; human, in vivo",22.0%
same,"Treatment-related stomatitis, patients","[6]; human, in vivo",36.4%
same,Dose-limiting toxicity observed,[6]; in vivo,hyperphosphatemia
same,Deaths attributed to PD or to related AEs,[6]; of fifteen deaths,11
same,Deaths suspected to be BGJ398 related,[6]; of fifteen deaths,One
same,Maximum tolerated dose (MTD),"[6]; oral, once daily",125 mg
same,Recommended phase II dose (RP2D),"[6]; oral, once daily, 3-weeks-on/1-week-off schedule",125 mg
